From the NIST ThermoML archive (doi:10.1021/je8007843) come the findings set out here.

The structures appear in SMILES notation. ± gives the expanded uncertainty stated by the source.

The conditions of the data set: Crystal; visual observation.

For the compound `Nc1ccccn1` [2-pyridinamine], the Normal melting temperature stood at 57.6 ± 0.6 °C. In the case of `Nc1cccc(N)n1` [pyridine-2,6-diamine] it was 121.7 ± 1.2 °C.
